The structures appear in SMILES notation.

One experiment deals with T1, topoisomerase II (Homo sapiens, UniProt P11388).
T1 construct: purchased TopoGEN, Inc
Description: kDNA decatenation assay (Topo II assay). In kind it is biochemical. Set-up: key: + (some inhibition); + (some inhibition) < ++ < +++; ++ < +++ < ++++; ++++ (complete inhibition). The following applies: kDNA substrate, 37° C. for 30 min, agarose gel. As for the experimental part: The ability of compounds of the formulae (I) or (Ia) to inhibit the activity of topoisomerase II was examined with a kDNA decatenation assay (TopoGEN, Inc. Port Orange, Fla.). Substrate kDNA was mixed with compounds and incubated at 37° C. for 30 min. The reaction was stop by adding ⅕ volume of stop buffer. 20 μl of the reaction was loaded on 1% agarose gel. Image of decatenation of kDNA by compounds was taken by Kodak Image Station 440. Table 1 indicates the ability of compound 1 inhibiting the activity of topoisomerase II.

The subject of experiment [1] is K562 chronic myelogenous leukemia cells. Description: Cell viability, Alamar Blue assay. The following applies: Homo sapiens, K562, 72 h, read-out: IC50 (cell viability). For orientation: The colour change of resazurin is a common sign of viable cells or microbes.
Description: Human K562 chronic myelogenous leukemia cells (American Type Culture Collection) were grown in RPMI medium with 2 mM L-glutamine, antibiotics (100 IU/ml penicillin and 100 μg/ml streptomycin) and 10% fetal bovine serum (Sigma Aldrich). Cells were maintained at 37° C., 5% CO2 atmosphere and subcultured at 1×10^6 cells/mL.
Cell viability was measured using the Alamar Blue assay (Invitrogen). In brief, cells were plated in 96-well plates in triplicate at 2000 cells per well and incubated at 37° C., 5% CO2 atmosphere for 24 hr prior to the addition of drug or vehicle (0.3% DMSO) to the culture medium. After 72 hr, 10 μl/well Alamar Blue was added to the wells and incubated for an additional 3 hr at 37° C., 5% CO2 atmosphere. Fluorescence (560Ex/590Em nM) was measured with a SpectraMax microplate reader (Molecular Devices) and the resulting data were used to calculate cell viability, normalized to vehicle control.
After 72 hr exposure to drug, cell viability was measured and results were fit to a four parameter logistic model (XLFit, ID Business Solutions) shown in FIG. 1.

T1 sequence (P11388 whole entry): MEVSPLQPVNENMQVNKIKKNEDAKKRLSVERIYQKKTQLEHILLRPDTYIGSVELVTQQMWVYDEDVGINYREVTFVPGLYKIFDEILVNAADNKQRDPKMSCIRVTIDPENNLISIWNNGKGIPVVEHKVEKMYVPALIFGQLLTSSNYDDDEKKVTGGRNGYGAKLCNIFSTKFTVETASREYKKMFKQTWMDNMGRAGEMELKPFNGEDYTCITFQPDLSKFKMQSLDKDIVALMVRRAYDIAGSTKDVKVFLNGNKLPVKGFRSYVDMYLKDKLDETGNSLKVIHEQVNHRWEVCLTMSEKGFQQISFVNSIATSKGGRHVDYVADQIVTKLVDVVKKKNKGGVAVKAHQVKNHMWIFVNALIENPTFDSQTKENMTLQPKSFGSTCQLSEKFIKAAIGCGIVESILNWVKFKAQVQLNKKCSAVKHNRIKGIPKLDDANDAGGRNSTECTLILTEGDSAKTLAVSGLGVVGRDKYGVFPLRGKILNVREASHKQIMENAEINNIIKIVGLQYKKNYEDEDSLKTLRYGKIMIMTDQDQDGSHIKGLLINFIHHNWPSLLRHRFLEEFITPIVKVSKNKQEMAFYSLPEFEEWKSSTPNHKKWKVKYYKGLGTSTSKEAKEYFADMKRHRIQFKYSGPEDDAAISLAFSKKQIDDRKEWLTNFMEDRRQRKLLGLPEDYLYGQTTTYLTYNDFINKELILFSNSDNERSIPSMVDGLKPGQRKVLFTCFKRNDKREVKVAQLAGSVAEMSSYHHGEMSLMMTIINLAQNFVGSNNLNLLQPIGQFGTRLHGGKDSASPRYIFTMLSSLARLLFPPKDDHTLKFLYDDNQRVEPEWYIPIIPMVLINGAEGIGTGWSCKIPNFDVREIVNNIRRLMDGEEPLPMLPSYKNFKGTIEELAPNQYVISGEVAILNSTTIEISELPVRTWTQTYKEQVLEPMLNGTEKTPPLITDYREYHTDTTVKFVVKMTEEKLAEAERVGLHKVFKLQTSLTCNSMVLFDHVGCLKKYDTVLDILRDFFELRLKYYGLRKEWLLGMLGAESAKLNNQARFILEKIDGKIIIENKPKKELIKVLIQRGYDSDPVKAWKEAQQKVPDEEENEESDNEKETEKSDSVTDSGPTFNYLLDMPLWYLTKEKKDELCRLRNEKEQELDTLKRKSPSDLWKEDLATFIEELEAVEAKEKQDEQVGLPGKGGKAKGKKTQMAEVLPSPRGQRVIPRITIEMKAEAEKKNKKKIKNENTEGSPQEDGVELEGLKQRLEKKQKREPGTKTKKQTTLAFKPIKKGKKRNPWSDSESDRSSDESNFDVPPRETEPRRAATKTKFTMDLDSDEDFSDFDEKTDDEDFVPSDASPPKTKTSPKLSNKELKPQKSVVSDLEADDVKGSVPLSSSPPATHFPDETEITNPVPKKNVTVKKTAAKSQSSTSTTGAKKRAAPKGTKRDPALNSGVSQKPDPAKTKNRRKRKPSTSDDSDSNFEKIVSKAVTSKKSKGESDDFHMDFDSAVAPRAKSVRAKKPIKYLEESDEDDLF

`CC(C)c1cc(-c2nnc(O)n2-c2ccc3c(ccn3C)c2)c(O)cc1O` [Compound 1, 3-(2,4-DIHYDROXY-5- ISOPROPYL-PHENYL)-4-(1- METHYL-INDOL-5-YL)-5- HYDROXY-[1,2,4] TRIAZOLE]: the “Topo II assay (effectiveness at inhibition)” value at topoisomerase II is “+”. The IC50 – broadly, the concentration that gives 50% inhibition – in experiment [1] is 16 nM.

Take `COc1cc([C@@H]2c3cc4c(cc3[C@@H](O[C@@H]3O[C@@H]5CO[C@@H](C)O[C@H]5[C@H](O)[C@H]3O)[C@H]3COC(=O)[C@H]23)OCO4)cc(OC)c1O` [etoposide, reference compound]: the IC50 in experiment [1] was determined as 21 nM.

Source of the values: patent publication US20130171105A1, “CANCER THERAPY USING A COMBINATION OF A HSP90 INHIBITORY COMPOUND AND A TOPOISOMERASE II INHIBITOR” (SYNTA PHARMACEUTICALS CORP., priority 2010, published 2013).
